The record followed here is PubChem BioAssay (NCI).

Experiment in all cases: NCI tumour cell line growth inhibition, 48 h
The test system of assay [1] is LOX IMVI melanoma.
Assay [2] relates to RXF 393 renal.
The test system of assay [3] is SF-295 CNS.
Assay [4] concerns M14 melanoma.
Assay [5] deals with SR leukemia.
Assay [6] deals with UO-31 renal.
Assay [7] concerns SF-268 CNS.
Assay [8] has as its system SNB-19 CNS.
Assay [9] concerns 786-0 renal.
In assay [10] the test system is PC-3 prostate.

Structures are written as SMILES.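 How tested: cells in 96-well plates exposed to compound for 48 hours at five concentrations. Abbreviation: GI50, concentration required for 50% inhibition of growth. TGI is the concentration that stops growth completely.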 Where a SMILES comes first, the peptide text is derived from it. The star is where a group is joined. Trt = c1ccc(C(c2ccccc2)(c2ccccc2)*)cc1; Cbz = O=C(OCc1ccccc1)*

Turning to `CC(=O)c1c2c(cc3c1CC1(C3)Cc3cc4c(c(C(=O)O)c3C1)CCC4)CCC2` (configuration not stated), the TGI in [1] was greater than 100 µM; in [2], greater than 100 µM; in assay [3] it was greater than 100 µM; in assay [4], greater than 100 µM; in assay [5] it was 80.2 µM; in assay [6], 72.7 µM. In addition, the TGI in assay [7], in [8] and in [9] was greater than 100 µM in each case.
Take `COC(=O)C(CSC(c1ccccc1)(c1ccccc1)c1ccccc1)NC(=O)C(CC(N)=O)NC(=O)OCc1ccccc1` (stereo not drawn) (Cbz-Asn-Cys(Trt)-OMe; configuration not given here): the GI50 is 1.83 µM in [1]; 3.17 µM in assay [2]; 2.96 µM in assay [3]; 1.68 µM in assay [4]; 3.57 µM in assay [10]; 8.88 µM in assay [6]. The GI50 in [7] is 3.08 µM; in assay [8], 5.22 µM; in assay [9] it was 3.44 µM. Further, the TGI in assay [1] amounted to 3.51 µM; in assay [2] it was 13.5 µM; in assay [3], 13.9 µM; in [4] it was 3.69 µM; in [10], 17.2 µM; in assay [6], 21.2 µM. The TGI worked out at 13.2 µM in assay [7], 18.9 µM in assay [8] and 12.6 µM in assay [9].
Turning to `COc1cccc2c1cc1c3c(cc4c(c32)OCO4)C(=O)N1`, the GI50 in assay [1] was 4.27 µM; in [2], 2.04 µM; in assay [3], 7.27 µM; in assay [4] it was 12.1 µM; in assay [10], 3.55 µM; in assay [6] it was 3.47 µM. The GI50 in assay [7] is 6.07 µM; in assay [8], 6.37 µM; in assay [9], 7.15 µM. The TGI is 23.3 µM in assay [1]; 5.5 µM in assay [2]; 29.1 µM in assay [3]; greater than 100 µM in [4]; 24.4 µM in [10]; 28.9 µM in [6]. Also, the TGI was 96.3 µM in assay [7], greater than 100 µM in assay [8] and 33.3 µM in [9].
`Cc1ccc(S(=NS(=O)(=O)c2ccc(C)cc2)c2ccc(C)cc2)cc1`: the TGI in assay [2], in [3], in assay [4], in [10], in assay [5] and in assay [6] was greater than 100 µM throughout. Besides, the TGI in assay [7], in [8] and in assay [9] was greater than 100 µM throughout.
As for `C/C(=N/O)c1ccc(Nc2cc(-n3ccnc3)c3ccccc3n2)cc1`, the GI50 is 15.1 µM in assay [3]; 5.75 µM in assay [4]; 3.69 µM in [10]; 3.78 µM in [5]; 15.3 µM in [6]; greater than 100 µM in assay [7]. The GI50 in [8] was 75.3 µM; in assay [9] it was 4.83 µM. The TGI in [3], in [4], in [10], in assay [5], in assay [6] and in [7] was greater than 100 µM each time. Besides, the TGI in [8] and in assay [9] was greater than 100 µM throughout.
As for `CCN(CC)Cc1cc(Nc2c3ccccc3nc3cc(Cl)ccc23)ccc1O`, the GI50 in [2] was 1.28 µM; in [3], 1.9 µM; in assay [4] it was 1.76 µM; in assay [10], 1.59 µM; in assay [5], 3.08 µM; in [6], 1.34 µM. In addition, the GI50 in assay [7] was 1.63 µM; in assay [8], 2.04 µM; in assay [9], 1.21 µM. In addition, the TGI in [2] is 2.58 µM; in assay [3] it was 4.86 µM; in assay [4] it was 3.18 µM; in assay [10] it was 3.26 µM; in assay [5] it was greater than 100 µM; in assay [6] it was 2.64 µM. In addition, the TGI in assay [7] stood at 3.13 µM; in assay [8], 5.27 µM; in assay [9], 2.46 µM.
Consider `CC(C(N)=O)N(C)C(=O)c1cnc2ccccc2c1` (configuration not stated), for which the TGI in assay [2], in assay [3], in assay [4], in [10], in assay [5] and in assay [6] was greater than 100 µM throughout. The TGI in assay [8] and in assay [9] was greater than 100 µM in each case.
For `Cc1ccc(-c2n[nH]c(=O)c3noc(-c4ccc(C)cc4)c23)cc1`, the GI50 is 0.677 µM in assay [1]; 0.419 µM in [2]; 0.422 µM in assay [4]; 2.07 µM in assay [10]; 0.441 µM in [5]; 1.26 µM in [6]. In addition, the GI50 in [7] is 2.21 µM; in assay [8], 2.13 µM; in assay [9], 2.78 µM. Besides, the TGI in assay [1] is greater than 100 µM; in assay [2] it was 2.08 µM; in [4] it was greater than 100 µM; in assay [10] it was greater than 100 µM; in [5] it was greater than 100 µM; in assay [6] it was 44.9 µM. Also, the figures for the TGI in assay [7], in [8] and in assay [9] were 27.7 µM, 42.8 µM and 24.9 µM, respectively.
For `COc1ccc(-c2nc(C(=O)c3ccccc3)n(CC(=O)c3ccc(Cl)cc3)c2-c2ccc(OC)cc2)cc1`, the GI50 in assay [1], in [2], in assay [3], in assay [4], in assay [10] and in [6] was greater than 100 µM throughout. Moreover, the GI50 in assay [7], in assay [8] and in assay [9] was greater than 100 µM each time. The TGI in [1], in [2], in assay [3], in assay [4], in [10] and in [6] was greater than 100 µM throughout. Further, the TGI in assay [7], in assay [8] and in [9] was greater than 100 µM each time.
